Laboratory results published in PMC6407917, “Identification of GSK3186899/DDD853651 as a Preclinical Development Candidate for the Treatment of Visceral Leishmaniasis” (Journal of Medicinal Chemistry, 2018).

What was measured:
Experiment in all cases: biochemical
Set-up in all cases: species or system HEK293/K-562/placenta mixed human extract; Kinobeads chemoproteomic competition binding, quantified by TMT LC-MS/MS, dose response up to 20 uM
FN3K = FN3K (Homo sapiens, UniProt Q9H479)
FER = FER (Homo sapiens, UniProt P16591)
EPHB2 = EPHB2 (Homo sapiens, UniProt P29323)
BMX = BMX (Homo sapiens, UniProt P51813)
BMX, sequence (P51813 whole entry): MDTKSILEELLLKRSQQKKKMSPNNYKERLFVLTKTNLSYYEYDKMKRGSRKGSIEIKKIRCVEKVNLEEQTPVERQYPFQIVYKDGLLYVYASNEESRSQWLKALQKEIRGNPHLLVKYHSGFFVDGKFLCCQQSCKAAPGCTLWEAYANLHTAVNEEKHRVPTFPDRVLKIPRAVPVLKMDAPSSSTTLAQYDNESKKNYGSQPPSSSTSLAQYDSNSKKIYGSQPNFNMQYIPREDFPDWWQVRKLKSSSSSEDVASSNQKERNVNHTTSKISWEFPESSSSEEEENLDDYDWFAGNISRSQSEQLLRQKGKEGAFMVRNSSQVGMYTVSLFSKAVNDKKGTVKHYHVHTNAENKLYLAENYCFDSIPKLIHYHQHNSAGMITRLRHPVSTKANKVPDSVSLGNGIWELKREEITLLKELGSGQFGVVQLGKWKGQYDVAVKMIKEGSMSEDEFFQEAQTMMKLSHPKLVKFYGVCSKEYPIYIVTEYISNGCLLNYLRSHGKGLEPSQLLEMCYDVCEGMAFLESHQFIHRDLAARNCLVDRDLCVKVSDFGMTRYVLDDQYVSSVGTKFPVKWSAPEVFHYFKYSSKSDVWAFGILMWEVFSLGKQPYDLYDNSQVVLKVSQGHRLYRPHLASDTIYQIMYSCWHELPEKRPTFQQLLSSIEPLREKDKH

PKN1 = PKN1 (Homo sapiens, UniProt Q16512)
ERN1 = ERN1 (Homo sapiens, UniProt O75460)
EPHA7 = EPHA7 (Homo sapiens, UniProt Q15375)
EPHA7, sequence (Q15375 whole entry): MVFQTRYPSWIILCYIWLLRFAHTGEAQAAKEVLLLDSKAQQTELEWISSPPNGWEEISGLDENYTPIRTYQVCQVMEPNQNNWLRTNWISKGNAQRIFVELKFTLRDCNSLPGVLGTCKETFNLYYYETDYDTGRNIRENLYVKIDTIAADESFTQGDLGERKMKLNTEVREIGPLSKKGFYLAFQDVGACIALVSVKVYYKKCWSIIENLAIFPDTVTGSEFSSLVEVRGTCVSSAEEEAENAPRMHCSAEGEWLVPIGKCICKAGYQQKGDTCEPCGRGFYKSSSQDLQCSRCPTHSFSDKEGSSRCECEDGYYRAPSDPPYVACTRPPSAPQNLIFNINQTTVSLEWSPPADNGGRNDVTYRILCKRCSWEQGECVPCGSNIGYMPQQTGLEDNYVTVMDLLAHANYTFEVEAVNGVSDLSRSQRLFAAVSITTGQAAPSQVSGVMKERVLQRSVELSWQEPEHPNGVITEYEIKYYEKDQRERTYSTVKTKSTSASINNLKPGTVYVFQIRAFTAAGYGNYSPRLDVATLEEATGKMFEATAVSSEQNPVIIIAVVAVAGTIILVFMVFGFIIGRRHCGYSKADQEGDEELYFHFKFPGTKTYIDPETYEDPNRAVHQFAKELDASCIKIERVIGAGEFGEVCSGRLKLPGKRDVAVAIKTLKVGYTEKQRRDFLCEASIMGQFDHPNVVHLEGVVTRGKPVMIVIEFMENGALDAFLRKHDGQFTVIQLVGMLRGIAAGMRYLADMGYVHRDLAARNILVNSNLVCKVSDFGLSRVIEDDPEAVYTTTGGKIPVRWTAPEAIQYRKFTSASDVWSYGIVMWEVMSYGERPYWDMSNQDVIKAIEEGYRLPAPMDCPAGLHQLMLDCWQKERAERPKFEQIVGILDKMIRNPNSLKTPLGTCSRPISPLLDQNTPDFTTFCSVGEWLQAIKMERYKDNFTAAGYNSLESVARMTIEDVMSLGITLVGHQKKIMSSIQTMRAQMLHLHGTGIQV

PRKAA1 = PRKAA1 (Homo sapiens, UniProt Q13131)
CAMK2B = CAMK2B (Homo sapiens, UniProt Q13554)
NEK3 = NEK3 (Homo sapiens, UniProt P51956)
TBK1 = TBK1 (Homo sapiens, UniProt Q9UHD2)
TESK1 = TESK1 (Homo sapiens, UniProt Q15569)
MAP3K2 = MAP3K2 (Homo sapiens, UniProt Q9Y2U5)
PKMYT1 = PKMYT1 (Homo sapiens, UniProt Q99640)
PTK2B = PTK2B (Homo sapiens, UniProt Q14289)
PTK2B, sequence (Q14289 whole entry): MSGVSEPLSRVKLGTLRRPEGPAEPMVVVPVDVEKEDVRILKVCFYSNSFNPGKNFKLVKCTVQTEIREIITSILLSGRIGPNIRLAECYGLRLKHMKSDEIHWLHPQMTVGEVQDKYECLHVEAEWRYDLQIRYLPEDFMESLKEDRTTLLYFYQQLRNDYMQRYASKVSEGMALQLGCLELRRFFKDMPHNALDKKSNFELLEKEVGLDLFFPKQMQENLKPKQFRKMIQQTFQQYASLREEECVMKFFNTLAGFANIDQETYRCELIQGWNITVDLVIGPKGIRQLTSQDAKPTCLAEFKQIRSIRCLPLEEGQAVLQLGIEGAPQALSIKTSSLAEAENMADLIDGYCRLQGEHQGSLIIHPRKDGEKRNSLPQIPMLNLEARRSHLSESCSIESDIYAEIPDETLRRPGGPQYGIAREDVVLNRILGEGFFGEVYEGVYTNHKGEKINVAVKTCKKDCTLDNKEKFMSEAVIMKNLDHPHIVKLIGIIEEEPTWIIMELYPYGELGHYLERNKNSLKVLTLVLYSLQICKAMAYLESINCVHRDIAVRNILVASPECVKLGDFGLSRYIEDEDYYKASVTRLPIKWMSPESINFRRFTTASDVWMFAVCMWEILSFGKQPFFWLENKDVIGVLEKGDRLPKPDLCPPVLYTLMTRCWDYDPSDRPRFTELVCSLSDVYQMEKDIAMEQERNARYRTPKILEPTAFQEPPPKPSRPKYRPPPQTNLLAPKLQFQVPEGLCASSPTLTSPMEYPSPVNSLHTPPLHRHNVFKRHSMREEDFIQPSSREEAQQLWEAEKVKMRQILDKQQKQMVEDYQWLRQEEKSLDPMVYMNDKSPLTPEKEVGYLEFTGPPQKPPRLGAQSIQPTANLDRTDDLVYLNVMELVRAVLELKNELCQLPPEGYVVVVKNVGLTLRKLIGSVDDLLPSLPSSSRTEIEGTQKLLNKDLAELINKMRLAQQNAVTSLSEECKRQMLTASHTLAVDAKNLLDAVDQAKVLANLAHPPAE

STK17B = STK17B (Homo sapiens, UniProt O94768)
STK17B, sequence (O94768 whole entry): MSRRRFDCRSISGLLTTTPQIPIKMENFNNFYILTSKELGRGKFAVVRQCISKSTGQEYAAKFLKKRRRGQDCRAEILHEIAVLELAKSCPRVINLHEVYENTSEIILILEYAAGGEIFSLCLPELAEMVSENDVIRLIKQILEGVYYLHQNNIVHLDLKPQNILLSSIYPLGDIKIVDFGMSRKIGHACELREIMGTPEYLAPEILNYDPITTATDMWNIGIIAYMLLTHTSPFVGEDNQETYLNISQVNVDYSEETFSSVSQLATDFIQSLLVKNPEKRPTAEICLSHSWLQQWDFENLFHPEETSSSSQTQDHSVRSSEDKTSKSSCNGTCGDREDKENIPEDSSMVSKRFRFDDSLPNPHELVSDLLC

YWHAZ = YWHAZ (Homo sapiens, UniProt P63104)
YWHAZ, sequence (P63104 whole entry): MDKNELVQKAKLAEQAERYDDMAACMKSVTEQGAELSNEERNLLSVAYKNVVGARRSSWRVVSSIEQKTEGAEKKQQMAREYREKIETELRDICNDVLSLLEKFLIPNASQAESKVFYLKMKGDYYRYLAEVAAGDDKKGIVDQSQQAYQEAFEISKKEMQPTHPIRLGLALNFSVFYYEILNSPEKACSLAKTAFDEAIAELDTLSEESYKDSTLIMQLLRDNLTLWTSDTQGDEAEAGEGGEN

ABL2 = ABL2 (Homo sapiens, UniProt P42684)
PIP4K2A = PIP4K2A (Homo sapiens, UniProt P48426)
PIP4K2A, sequence (P48426 whole entry): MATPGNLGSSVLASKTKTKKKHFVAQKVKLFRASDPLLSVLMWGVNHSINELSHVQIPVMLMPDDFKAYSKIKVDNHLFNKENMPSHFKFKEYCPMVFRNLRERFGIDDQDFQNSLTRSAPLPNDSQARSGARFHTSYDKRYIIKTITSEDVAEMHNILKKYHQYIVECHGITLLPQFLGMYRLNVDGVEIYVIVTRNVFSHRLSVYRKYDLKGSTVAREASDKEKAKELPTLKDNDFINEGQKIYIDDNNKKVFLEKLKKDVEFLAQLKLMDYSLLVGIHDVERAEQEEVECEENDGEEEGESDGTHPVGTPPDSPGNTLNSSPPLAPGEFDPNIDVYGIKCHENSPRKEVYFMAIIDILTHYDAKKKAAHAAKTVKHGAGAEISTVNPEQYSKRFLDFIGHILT

STK35 = STK35 (Homo sapiens, UniProt Q8TDR2)
STK35, sequence (Q8TDR2 whole entry): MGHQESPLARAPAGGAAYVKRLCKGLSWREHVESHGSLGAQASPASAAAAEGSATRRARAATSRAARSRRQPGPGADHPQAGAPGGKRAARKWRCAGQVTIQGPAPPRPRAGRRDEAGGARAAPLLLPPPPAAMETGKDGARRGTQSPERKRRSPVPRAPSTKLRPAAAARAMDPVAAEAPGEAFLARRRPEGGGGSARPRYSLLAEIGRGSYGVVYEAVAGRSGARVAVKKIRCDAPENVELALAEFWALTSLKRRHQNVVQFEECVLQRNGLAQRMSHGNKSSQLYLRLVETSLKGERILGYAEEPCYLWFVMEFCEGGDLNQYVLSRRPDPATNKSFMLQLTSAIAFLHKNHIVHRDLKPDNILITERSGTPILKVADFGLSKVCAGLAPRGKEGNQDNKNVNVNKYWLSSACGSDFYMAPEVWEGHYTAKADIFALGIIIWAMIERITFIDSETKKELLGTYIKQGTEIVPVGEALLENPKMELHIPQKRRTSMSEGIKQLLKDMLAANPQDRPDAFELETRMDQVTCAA

CLK2 = CLK2 (Homo sapiens, UniProt P49760)
CLK2, sequence (P49760 whole entry): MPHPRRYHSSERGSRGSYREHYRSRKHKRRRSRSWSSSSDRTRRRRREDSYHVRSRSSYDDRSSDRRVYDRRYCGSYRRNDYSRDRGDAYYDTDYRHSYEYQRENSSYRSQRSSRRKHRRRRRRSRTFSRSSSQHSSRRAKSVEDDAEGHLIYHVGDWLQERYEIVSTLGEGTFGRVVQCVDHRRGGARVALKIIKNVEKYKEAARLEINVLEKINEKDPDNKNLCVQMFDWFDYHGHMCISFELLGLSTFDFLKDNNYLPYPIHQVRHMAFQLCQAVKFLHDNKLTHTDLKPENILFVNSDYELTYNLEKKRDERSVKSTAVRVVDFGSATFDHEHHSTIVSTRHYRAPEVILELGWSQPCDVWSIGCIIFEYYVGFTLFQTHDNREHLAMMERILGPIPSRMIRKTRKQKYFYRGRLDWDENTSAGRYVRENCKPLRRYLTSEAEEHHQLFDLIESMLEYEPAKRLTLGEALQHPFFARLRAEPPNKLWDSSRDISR

Measured: IC50

COc1nc(N[C@H]2CC[C@H](NS(=O)(=O)CC(C)C)CC2)nc2[nH]nc(N3CCOC[C@H]3C)c12 [compound 39, N-(trans-4-((4-Methoxy-3-((R)-3-methylmorpholino)-1H-pyrazolo[3,4-d]pyrimidin-6-yl)amino)cyclohexyl)-2-methylpropane-1-sulfonamide]
≥ 20 µM: all assays above
